Source: patent US20220251085A1, “CYSTEINE BINDING COMPOSITIONS AND METHODS OF USE THEREOF” (University of Virginia Patent Foundation, priority 2019, published 2022)

Target: T1, human eEF-Sec (Uniprot ID P57772) (Homo sapiens, UniProt P57772)
T1 construct: FLAG; expressed in transfected cells; host or cells: HEK293T
T1 sequence (P57772 1-596): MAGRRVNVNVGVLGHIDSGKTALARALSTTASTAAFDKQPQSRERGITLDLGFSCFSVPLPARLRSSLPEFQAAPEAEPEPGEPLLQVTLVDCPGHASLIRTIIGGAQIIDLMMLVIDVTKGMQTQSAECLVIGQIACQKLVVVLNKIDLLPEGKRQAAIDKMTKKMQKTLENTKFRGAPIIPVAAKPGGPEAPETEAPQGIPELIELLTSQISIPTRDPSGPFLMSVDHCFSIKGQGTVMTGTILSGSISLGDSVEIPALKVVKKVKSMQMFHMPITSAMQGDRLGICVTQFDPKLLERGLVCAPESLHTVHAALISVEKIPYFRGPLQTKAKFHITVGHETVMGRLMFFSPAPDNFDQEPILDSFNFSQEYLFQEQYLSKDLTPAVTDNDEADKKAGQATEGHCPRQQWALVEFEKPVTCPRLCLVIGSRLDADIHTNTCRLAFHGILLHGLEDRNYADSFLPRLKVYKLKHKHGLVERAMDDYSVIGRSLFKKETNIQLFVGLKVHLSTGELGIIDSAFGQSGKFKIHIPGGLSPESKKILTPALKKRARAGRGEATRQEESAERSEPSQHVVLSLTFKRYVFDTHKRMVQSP
Assay: Purine probe labeling of recombinant eEF-Sec expressed in HEK293T cells, gel-based
Assay type: cell-based
Settings: 50 μM probe, live cells, 0.5 to 2 hours
Procedure: Methods: HEK293T cells were grown at 37° C. in 5% CO2 until 40% confluent. Recombinant human eEF-Sec (Uniprot ID P57772) was expressed by transient transfection for 48 hours. […] Lysates were spun at 100,000×g for 45 minutes. […] Purine probe modified proteins were conjugated to rhodamine-azide by CuAAC, subjected to SDS-PAGE analysis, and detected by in-gel fluorescence scanning. Comparison of non-transfected (Mock) and transfected proteomes was used to identify the recombinant eEF-Sec purine probe-labeled band. […] Reduction in fluorescent signals from purine probe labeling was indicative of Pi ligand inhibitory activity. Mut represents eEF-Sec mutant where cysteine residue 442 is mutated to alanine (C442A).
SDS-PAGE gels were transferred to nitrocellulose membrane. Nitrocellulose blots were blocked with 5% BSA. Blots were washed five times with TBS-T. Recombinant protein expression was detected using an anti-FLAG primary antibody (1:1,000) followed by fluorescent secondary antibody (1:10,000) to determine if there was equivalent protein expression across different treatment conditions.

## C#CCn1cnc2c(Cl)nc(Cl)nc21 [Pu-2, 2,6-Dichloro-9-(prop-2-yn-1-yl)-9H-purine]
  labeling of recombinant eEF-SEC: labeled in a time dependent manner

## C#CCn1cnc2nc(Cl)nc(Cl)c21 [Pu-1, 2,6-Dichloro-7-(prop-2-yn-1-yl)-7H-purine]
  labeling of recombinant eEF-SEC: labeled in a time dependent manner
